{
  "source": "patent US11214803B2",
  "about": "“Modulators of YAP1 expression” (Ionis Pharmaceuticals, Inc., priority 2019, dated 2022)",
  "tested_on": "Yap1 mRNA",
  "experiment": "Antisense inhibition of human Yap1 in A-431 cells by cEt gapmers, single dose (Example 2, RTS4814)",
  "assay_type": "cell-based",
  "protocol": "Modified oligonucleotides were designed to target a Yap1 nucleic acid and were tested for their effect on Yap1 mRNA level in vitro. The modified oligonucleotides were tested in a series of experiments that had similar culture conditions. Cultured A-431 cells at a density of 5,000 cells per well were treated using free uptake with 2,000 nM of modified oligonucleotide. After a treatment period of approximately 48 hours, RNA was isolated from the cells and Yap1 mRNA levels were measured by quantitative real-time RTPCR. Human primer probe set RTS4814 was used to measure mRNA levels. Yap1 mRNA levels were normalized to total RNA content, as measured by RIBOGREEN®. Results are presented in the tables below as percent control of the amount of Yap1 mRNA relative to untreated control cells (% UTC). The modified oligonucleotides with percent control values marked with an asterisk (*) target the amplicon region of the primer probe set. Additional assays may be used to measure the potency and efficacy of the modified oligonucleotides targeting the amplicon region.\nThe newly designed modified oligonucleotides in the Tables below were designed as 3-10-3 cEt gapmers. The gapmers are 16 nucleosides in length, wherein the central gap segment comprises of ten 2′-deoxynucleosides and is flanked by wing segments on the 5′ direction and the 3′ direction comprising three nucleosides each. Each nucleoside in the 5′ wing segment and each nucleoside in the 3′ wing segment has a cEt sugar modification. The internucleoside linkages throughout each gapmer are phosphorothioate (P═S) linkages. All cytosine residues throughout each gapmer are 5-methylcytosines.\n“Start site” indicates the 5′-most nucleoside to which the gapmer is targeted in the human gene sequence. “Stop site” indicates the 3′-most nucleoside to which the gapmer is targeted human gene sequence. […] Activity ofthe modified oligonucleotide may be defined in a different experiment.",
  "key": {"[1]": {"conditions": "Table 25, Yap1 mRNA as percent of untreated control, 3-10-3 cEt gapmers targeting SEQ ID NO.: 1, and 2"}, "[2]": {"conditions": "Table 23, Yap1 mRNA as percent of untreated control, 3-10-3 cEt gapmers, single dose"}, "[3]": {"conditions": "Table 21, Yap1 mRNA, percent of untreated control, 3-10-3 cEt gapmers targeting SEQ ID NO.: 1 and 2"}, "[4]": {"conditions": "Table 32, Yap1 mRNA, percent of untreated control, 3-10-3 cEt gapmers targeting SEQ ID NO.: 1, and 2"}, "[5]": {"conditions": "Table 5, A-431 cells, 5,000 cells per well, free uptake, 2,000 nM modified oligonucleotide, approx. 48 hours, RTS4814, normalized to RIBOGREEN, Yap1 mRNA relative to untreated control cells"}, "[6]": {"conditions": "Table 20, Yap1 mRNA, percent of untreated control, 3-10-3 cEt gapmers targeting SEQ ID NO.: 1 and 2"}},
  "note": "Marks after values point to notes of the source that are not given here. Strand notation (5' to 3'): a small letter for the sugar, then the base; units joined by * are phosphorothioate-linked, units joined directly phosphodiester-linked; [ ] holds rarer units or linkages, { } end groups; capitals alone tell only the bases. k = constrained ethyl (cEt); [5mC] = 5-methylcytosine; d = 2'-deoxy (DNA)",
  "data": [
    {"substance": "1076139 (k[5mC]*kG*kA*dA*dA*dA*dA*dA*dG*d[5mC]*d[5mC]*dA*dA*k[5mC]*kA*kA; antisense) [Compound 1076139]", "values": [
      {"measurement": "YAP1 (% UTC)", "setting": "[1]", "result": 18, "unit": "% UTC"}
    ]},
    {"substance": "1076042 (k[5mC]*kT*kT*dA*dA*dG*d[5mC]*dA*dA*dG*dA*dG*dT*k[5mC]*k[5mC]*kA; antisense) [Compound 1076042]", "values": [
      {"measurement": "YAP1 (% UTC)", "setting": "Table 24, Yap1 mRNA as percent of untreated control, 3-10-3 cEt gapmers targeting SEQ ID NO.: 1, and 2", "result": 35, "unit": "% UTC"}
    ]},
    {"substance": "1075140 (antisense k[5mC]*kT*kT*dT*dA*dG*dG*dT*dT*dA*dA*dG*d[5mC]*kA*kA*kT) [Compound 1075140]", "values": [
      {"measurement": "YAP1 (% UTC)", "setting": "Table 18, A-431 cells, 5,000 cells per well, free uptake, 2,000 nM modified oligonucleotide, approx. 48 hours, RTS4814, normalized to RIBOGREEN, Yap1 mRNA as percent of untreated control", "result": 86, "unit": "% UTC"}
    ]},
    {"substance": "1075209 (antisense k[5mC]*kA*kT*d[5mC]*dA*dA*d[5mC]*dA*dA*dT*dG*dG*dT*k[5mC]*kT*kA) [Compound 1075209]", "values": [
      {"measurement": "YAP1 (% UTC)", "setting": "[2]", "result": 11, "unit": "% UTC"}
    ]},
    {"substance": "1075975 (kG*kG*kA*dA*dA*dA*dA*dA*dA*dT*dT*d[5mC]*d[5mC]*kG*k[5mC]*kA; antisense) [Compound 1075975]", "values": [
      {"measurement": "YAP1 (% UTC)", "setting": "[3]", "result": 84, "unit": "% UTC"}
    ]},
    {"substance": "1075463 (antisense k[5mC]*kT*kT*dA*dA*dT*d[5mC]*d[5mC]*dA*dA*dA*dG*d[5mC]*kT*kT*k[5mC]) [Compound 1075463]", "values": [
      {"measurement": "YAP1 (% UTC)", "setting": "[3]", "result": 34, "unit": "% UTC"}
    ]},
    {"substance": "1076235 (kT*k[5mC]*kA*dA*dA*dA*dT*dA*dA*dT*d[5mC]*dA*dG*k[5mC]*k[5mC]*k[5mC]; antisense) [Compound 1076235]", "values": [
      {"measurement": "YAP1 (% UTC)", "setting": "[1]", "result": 34, "unit": "% UTC"}
    ]},
    {"substance": "1075410 (antisense kG*kA*kT*dT*dA*dA*d[5mC]*dA*dG*d[5mC]*d[5mC]*d[5mC]*dT*kT*kT*kA) [compound 1075410]", "values": [
      {"measurement": "YAP1 (% UTC)", "setting": "[4]", "result": 36, "unit": "% UTC"}
    ]},
    {"substance": "1075026 (antisense k[5mC]*kT*kT*dA*dA*dA*dA*dG*d[5mC]*d[5mC]*dA*dT*d[5mC]*kT*kA*k[5mC]) [compound 1075026]", "values": [
      {"measurement": "YAP1 (% UTC)", "setting": "[4]", "result": 55, "unit": "% UTC"}
    ]},
    {"substance": "716425 (kG*k[5mC]*kA*dA*dT*dA*d[5mC]*dA*dT*dT*dA*dA*d[5mC]*kA*kG*k[5mC]; antisense) [Compound 716425]", "values": [
      {"measurement": "YAP1 (% UTC)", "setting": "[5]", "result": 71, "unit": "% UTC"}
    ]},
    {"substance": "1074896 (antisense kG*k[5mC]*kA*dA*dA*dG*dT*dT*d[5mC]*d[5mC]*dT*dA*dT*kG*k[5mC]*kT) [compound 1074896]", "values": [
      {"measurement": "YAP1 (% UTC)", "setting": "Yap1 mRNA as percent of untreated control, A-431 cells, 3-10-3 cEt gapmers targeting SEQ ID NO.: 1, and 2, Table 30", "result": 99, "unit": "% UTC"}
    ]},
    {"substance": "1074161 (kG*kG*k[5mC]*dG*dA*dG*d[5mC]*dG*dA*dG*dG*dG*d[5mC]*kT*kA*k[5mC]; antisense) [compound 1074161]", "values": [
      {"measurement": "YAP1 (% UTC)", "setting": "Yap1 mRNA as percent of untreated control, A-431 cells, 3-10-3 cEt gapmers targeting SEQ ID NO.: 1, and 2, Table 31", "result": 98, "unit": "% UTC"}
    ]},
    {"substance": "1074438 (kG*kA*k[5mC]*dA*dT*dG*dA*dA*dG*d[5mC]*dA*dT*d[5mC]*kT*kG*kA; antisense) [Compound 1074438]", "values": [
      {"measurement": "YAP1 (% UTC)", "setting": "[6]", "result": "1* % UTC"}
    ]},
    {"substance": "716362 (kA*kG*kG*d[5mC]*dG*dG*d[5mC]*dT*dG*d[5mC]*d[5mC]*d[5mC]*dT*kT*kG*kG; antisense) [Compound 716362]", "values": [
      {"measurement": "YAP1 (% UTC)", "setting": "[5]", "result": 94, "unit": "% UTC"}
    ]},
    {"substance": "1076197 (kT*kA*kT*dT*dA*dT*d[5mC]*dA*dA*dG*dG*dG*dA*kA*kT*kT; antisense) [Compound 1076197]", "values": [
      {"measurement": "YAP1 (% UTC)", "setting": "Table 19, A-431 cells, 5,000 cells per well, free uptake, 2,000 nM modified oligonucleotide, approx. 48 hours, RTS4814, normalized to RIBOGREEN, Yap1 mRNA as percent of untreated control", "result": 94, "unit": "% UTC"}
    ]},
    {"substance": "1075369 (kG*kG*kA*dG*dA*dA*dT*dA*dA*dG*d[5mC]*dA*dA*kT*k[5mC]*kA; antisense) [Compound 1075369]", "values": [
      {"measurement": "YAP1 (% UTC)", "setting": "[2]", "result": 31, "unit": "% UTC"}
    ]},
    {"substance": "1075078 (antisense k[5mC]*kA*kA*d[5mC]*dT*dA*dT*dA*d[5mC]*dG*dG*dT*d[5mC]*k[5mC]*kA*kT) [Compound 1075078]", "values": [
      {"measurement": "YAP1 (% UTC)", "setting": "[6]", "result": 3, "unit": "% UTC"}
    ]},
    {"substance": "716565 (kG*kG*kG*d[5mC]*dT*dA*dA*d[5mC]*dT*dA*d[5mC]*dA*dT*kT*kG*k[5mC]; antisense) [Compound 716565]", "values": [
      {"measurement": "YAP1 (% UTC)", "setting": "A-431 cells, 5,000 cells per well, free uptake, 2,000 nM modified oligonucleotide, approx. 48 hours, RTS4814, normalized to RIBOGREEN, Table 4, asterisk (*) = targets amplicon region of primer probe set", "result": 129, "unit": "% UTC"}
    ]},
    {"substance": "1074249 (antisense kT*kG*kA*dT*d[5mC]*dG*dA*dT*dG*dT*dG*dA*dT*kT*kT*kA) [Compound 1074249]", "values": [
      {"measurement": "YAP1 (% UTC)", "setting": "[2]", "result": 23, "unit": "% UTC"}
    ]},
    {"substance": "1076390 (kG*kA*kT*d[5mC]*dG*dA*dA*dA*dT*dA*dT*dT*d[5mC]*kG*kA*kG; antisense) [Compound 1076390]", "values": [
      {"measurement": "YAP1 (% UTC)", "setting": "[6]", "result": 54, "unit": "% UTC"}
    ]},
    {"substance": "1076360 (k[5mC]*kT*kA*dT*dT*dT*dA*dT*d[5mC]*d[5mC]*dT*dA*dG*kT*kT*kA; antisense) [Compound 1076360]", "values": [
      {"measurement": "YAP1 (% UTC)", "setting": "Table 22, Yap1 mRNA as percent of untreated control, 3-10-3 cEt gapmers, single dose", "result": 59, "unit": "% UTC"}
    ]},
    {"substance": "1076327 (kG*kA*kT*dA*dA*dG*d[5mC]*dA*dA*dG*dG*dT*dT*k[5mC]*kT*k[5mC]; antisense) [Compound 1076327]", "values": [
      {"measurement": "YAP1 (% UTC)", "setting": "[3]", "result": 7, "unit": "% UTC"}
    ]}
  ]
}
